Experimental data from article PMC8151276, “An Integrated Approach toward NanoBRET Tracers for Analysis of GPCR Ligand Engagement” (Molecules, 2021).

Experiments:
Assay type in all cases: binding
[1] = biological target: T1, ADRA2B (Homo sapiens, UniProt P18089); assay: NanoBRET screen HiBiT-ADRA2B in HEK293
T1 construct: purchased Promega (in-house HiBiT-GPCR construct library, NanoBRET)
T1 sequence (P18089 1-450): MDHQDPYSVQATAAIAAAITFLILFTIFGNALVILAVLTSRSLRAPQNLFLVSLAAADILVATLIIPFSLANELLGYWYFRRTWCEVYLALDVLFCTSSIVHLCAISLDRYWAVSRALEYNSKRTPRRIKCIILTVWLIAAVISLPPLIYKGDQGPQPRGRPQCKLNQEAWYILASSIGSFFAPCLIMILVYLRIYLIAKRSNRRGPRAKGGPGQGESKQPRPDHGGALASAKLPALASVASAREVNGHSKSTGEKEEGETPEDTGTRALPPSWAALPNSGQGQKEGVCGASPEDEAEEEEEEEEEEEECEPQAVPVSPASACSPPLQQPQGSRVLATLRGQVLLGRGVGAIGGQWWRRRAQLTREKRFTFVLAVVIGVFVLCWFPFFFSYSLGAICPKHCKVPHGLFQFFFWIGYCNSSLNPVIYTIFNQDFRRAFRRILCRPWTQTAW

[2] = biological target: T2, DRD4 (Homo sapiens, UniProt P21917); assay: NanoBRET screen HiBiT-DRD4 in HEK293
T2 construct: purchased Promega (in-house HiBiT-GPCR construct library, NanoBRET)
T2 sequence (P21917 1-419): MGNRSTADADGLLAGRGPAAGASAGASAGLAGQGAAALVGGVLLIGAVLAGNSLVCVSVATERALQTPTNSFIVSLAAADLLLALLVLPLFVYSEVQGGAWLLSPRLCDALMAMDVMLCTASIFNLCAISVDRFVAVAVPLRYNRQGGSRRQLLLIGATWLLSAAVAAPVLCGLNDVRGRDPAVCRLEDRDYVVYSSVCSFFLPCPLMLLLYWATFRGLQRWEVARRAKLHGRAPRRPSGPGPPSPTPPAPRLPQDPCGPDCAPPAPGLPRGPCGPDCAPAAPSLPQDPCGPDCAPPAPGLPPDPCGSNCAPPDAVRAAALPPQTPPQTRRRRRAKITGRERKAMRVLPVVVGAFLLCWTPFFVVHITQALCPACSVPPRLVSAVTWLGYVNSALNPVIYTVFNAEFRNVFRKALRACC
Description: (§1) Each tracer candidate was screened across the entire library of HiBiT-GPCR constructs using NanoBRET as the detection modality. As depicted in Figure 4A, the specificity of interactions was evaluated through decrease in BRET due to competitive displacement of a bound tracer by excess parental compound. Each tracer was analyzed for binding to each HiBiT-GPCR fusion in the absence and in the presence of competing parental compound. Briefly, HEK293 cells were transfected with HiBiT-GPCR constructs diluted into promoterless DNA to reduce expression and maximize translocation to the cell surface. Each tracer candidate was then screened at concentrations of 1 μM and 0.1 μM across cells expressing these fusions. Cells were treated for 1.5 h with tracer either alone or in the presence of 20 μM competing parental compound (i.e., control). BRET was measured upon addition of purified LgBiT and subsequent complementation with HiBiT genetically fused to a GPCR. The specificity of interactions was assessed through a decrease in BRET signal due to competitive displacement of the bound tracer. To further gauge the robustness of these interactions, the fold response over the control (i.e., BRETtracer/BRETcontrol) was calculated. We chose a 1.5-fold response, which translates to ≥7-fold signal over noise as the minimal threshold required to score an interaction as positive.
(§2) HiBiT-GPCR DNA constructs were diluted in 10 mM Tris pH 8 to a final concentration of 0.01 μg/μL, arrayed in 96-well plates and stored at −20 °C. For transfection, HEK293 cells were suspended in Opti-MEM (without phenol red) supplemented with 2% fetal bovine serum (Seradigm) and 100 units/mL penicillin–streptomycin (Gibco) at a final concentration of 220,000 cells/mL and dispensed into white 96-well plates at 90 μL/well. Subsequent transfections and screens were carried using an Agilent Bravo Automated Liquid Handling Platform. First, the 96-well HiBiT DNA arrays were diluted 25-fold in Opti-MEM (without serum or phenol red) to a final concentration of 0.0004 μg/μL and 20 μL of the diluted DNAs were transferred into new 96-well plates. Next, promoterless carrier DNA (1 μg/μL) was diluted 25-fold (0.04 μg/μL) and then dispensed into the diluted arrays at 20 μL/well. Following brief mixing, Viafect transfection reagent (Promega) diluted 16-fold into Opti-MEM was dispensed into the plates at 40 μL/well. After mixing by pipetting, plates were incubated for 10 min on the pipetting station deck. The DNA-transfection reagent complexes were then added to plates containing cells. To facilitate the screen, 10 μL of DNA-transfection reagent complexes were added in duplicates to the top 4 and bottom 4 rows, resulting in two identical 48-well arrays per plate. Plates with transfected cells were incubated for 18–20 h at 37 °C/5% CO2. A screen of each tracer across the entire library using two different concentrations requires duplicate plates of transfected cells. Depending on the number of tracers being screened, transfections can be scaled up using the same ratios. The next day, for each tracer, four 20× screening solutions in tracer dilution buffer (Promega) were prepared: two duplicates at final concentration of 20 μM and two duplicates at a final concentration of 2 μM. […] The four resulting solutions were diluted 4-fold in Opti-MEM without serum or phenol red to generate 5× solutions (5 µM and 0.5 µM tracer +/− 100 μM competing compound). To screen the library, a BioTek MultiFlo FX liquid dispenser was used to dispense 22.5 µL of tracer solution to the top 4 rows and 22.5 µL tracer + competing compound solution to the 4 bottom rows. Plates were briefly mixed on an orbital shaker and incubated for 1.5 h at room temperature. […] Plates were briefly mixed on an orbital shaker and incubated for 15 min to allow complementation.

[3] = biological target: T3, HTR7 (Homo sapiens, UniProt P34969); assay: NanoBRET screen HiBiT-HTR7 in HEK293
T3 construct: purchased Promega (in-house HiBiT-GPCR construct library, NanoBRET)
T3 sequence (P34969 whole entry): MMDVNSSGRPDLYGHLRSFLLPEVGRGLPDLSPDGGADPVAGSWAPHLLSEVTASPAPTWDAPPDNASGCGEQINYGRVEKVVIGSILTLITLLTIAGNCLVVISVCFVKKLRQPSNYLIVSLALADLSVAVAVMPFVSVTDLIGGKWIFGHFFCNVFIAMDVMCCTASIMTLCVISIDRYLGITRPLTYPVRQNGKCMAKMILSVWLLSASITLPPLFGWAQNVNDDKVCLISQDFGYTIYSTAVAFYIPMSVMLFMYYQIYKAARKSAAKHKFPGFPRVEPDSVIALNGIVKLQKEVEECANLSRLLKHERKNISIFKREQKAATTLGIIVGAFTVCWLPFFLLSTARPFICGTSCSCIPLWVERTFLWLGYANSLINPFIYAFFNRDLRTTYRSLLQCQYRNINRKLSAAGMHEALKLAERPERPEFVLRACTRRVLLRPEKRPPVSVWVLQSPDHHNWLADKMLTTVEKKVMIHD
Description: as §1, §2

[4] = tracer at 0.1μM, listed as amitriptyline-b-2-NB590

CCOC(=O)c1cc(C#N)c(N2CCC(C(=O)NS(=O)(=O)Cc3ccccc3/C=C/C(=O)NCCNC(=O)CCc3ccc4n3[B-](F)(F)[N+]3=C(c5ccc[nH]5)C=CC3=C4)CC2)nc1C [AZD1283-1-NB590]
NanoBRET Fold Response ([1]; ADRA2B, 0.1μM): 1.09
NanoBRET Fold Response ([1]; ADRA2B, 1μM): 1.05
NanoBRET Fold Response ([2]; DRD4, 0.1μM): 1.05
NanoBRET Fold Response ([2]; DRD4, 1μM): 1.13
NanoBRET Fold Response ([3]; HTR7, 0.1μM): 1.08
NanoBRET Fold Response ([3]; HTR7, 1μM): 1.09

N#CN/C(=N\CCNC(=O)c1ccc(N)cc1)NCCCOc1cccc(CN2CCCCC2)c1 [Aminopotentidine (unmodified)]
NanoBRET Fold Response ([1]; ADRA2B, other tracers/Aminopotentidine (unmodified), 0.1μM): 1.49
NanoBRET Fold Response ([1]; ADRA2B, other tracers/Aminopotentidine (unmodified), 1μM): 1.60
NanoBRET Fold Response ([2]; DRD4, other tracers/Aminopotentidine (unmodified), 0.1μM): 1.24
NanoBRET Fold Response ([2]; DRD4, other tracers/Aminopotentidine (unmodified), 1μM): 1.17
NanoBRET Fold Response ([3]; HTR7, other tracers/Aminopotentidine (unmodified), 0.1μM): 1.10
NanoBRET Fold Response ([3]; HTR7, other tracers/Aminopotentidine (unmodified), 1μM): 1.18

N#CN=C(NCCCOc1cccc(CN2CCCCC2)c1)NCCNC(=O)CCOCCOCCOCCOCCNC(=O)CCc1ccc2n1[B-](F)(F)[N+]1=C(c3ccc[nH]3)C=CC1=C2 [Aminopotentidine-2-NB590]
NanoBRET Fold Response ([1]; ADRA2B, tracer 0.1μM): 1.12
NanoBRET Fold Response ([1]; ADRA2B, tracer 1μM): 1.11
NanoBRET Fold Response ([2]; DRD4, tracer 0.1μM): 1.00
NanoBRET Fold Response ([2]; DRD4, tracer 1μM): 0.98
NanoBRET Fold Response ([3]; HTR7, tracer 0.1μM): 1.00
NanoBRET Fold Response ([3]; HTR7, tracer 1μM): 1.00

CN(C)CCC=C1c2ccccc2CCc2ccc(C(=O)NCCNC(=O)CCOCCOCCOCCOCCNC(=O)CCc3ccc4n3[B-](F)(F)[N+]3=C(c5ccc[nH]5)C=CC3=C4)cc21 [Amitriptyline-a-2-NB590]
NanoBRET Fold Response ([2]; tracer at 0.1μM): 1.07
NanoBRET Fold Response ([2]; tracer at 1μM): 1.09
NanoBRET Fold Response ([3]; tracer at 0.1μM): 1.00
NanoBRET Fold Response ([3]; tracer at 1μM): 1.15

CN(C)CCC=C1c2ccccc2CCc2ccc(C(=O)NCCNC(=O)CCOCCOCCOCCOCCNC(=O)CCc3ccc4n3[B-](F)(F)[N+]3=C(c5ccc[nH]5)C=CC3=C4)cc21 [Amitriptyline-b-2-NB590]
NanoBRET Fold Response [2, 4]: 1.05
NanoBRET Fold Response [3, 4]: 0.94
NanoBRET Fold Response ([3]; tracer at 1μM, listed as amitriptyline-b-2-NB590): 0.94

CN(CCC=C1c2ccccc2CCc2ccccc21)C(=O)CCOCCOCCOCCOCCNC(=O)CCc1ccc2n1[B-](F)(F)[N+]1=C(c3ccc[nH]3)C=CC1=C2 [Amitriptyline-e-2-NB590]
NanoBRET Fold Response ([2]; tracer at 1μM): 1.01
NanoBRET Fold Response ([3]; tracer at 1μM): 0.96

COc1ccc2c(n1)c(CCNC(C)=O)cn2CCNC(=O)CCc1ccc2n1[B-](F)(F)[N+]1=C(c3ccc[nH]3)C=CC1=C2 [Azamelatonin-1-NB590]
NanoBRET Fold Response ([1]; 0.1μM tracer): 1.18
NanoBRET Fold Response ([1]; 1μM tracer): 0.96
NanoBRET Fold Response ([2]; 0.1μM tracer): 0.77
NanoBRET Fold Response ([2]; 1μM tracer): 1.03
NanoBRET Fold Response ([3]; 0.1μM tracer): 0.99
NanoBRET Fold Response ([3]; 1μM tracer): 0.99

COc1ccc2[nH]c(-c3ccc(CNC(=O)CCOCCOCCOCCOCCNC(=O)CCc4ccc5n4[B-](F)(F)[N+]4=C(c6ccc[nH]6)C=CC4=C5)cc3)c(CCNC(C)=O)c2n1 [AzomelatoninICO9-2-NB590]
NanoBRET Fold Response ([1]; 0.1μM tracer): 1.35
NanoBRET Fold Response ([1]; 1μM tracer): 1.12
NanoBRET Fold Response ([2]; 0.1μM tracer): 0.59
NanoBRET Fold Response ([2]; 1μM tracer): 0.88
NanoBRET Fold Response ([3]; 0.1μM tracer): 0.96
NanoBRET Fold Response ([3]; 1μM tracer): 1.02

O=C(CCOCCOCCOCCOCCNC(=O)CCc1ccc2n1[B-](F)(F)[N+]1=C(c3ccc[nH]3)C=CC1=C2)NCCCN1CCN(C2=Nc3cc(Cl)ccc3Nc3ccccc32)CC1 [Clozapine-a-2-NB590]
NanoBRET Fold Response ([1]; ADRA2B, 0.1μM tracer): 7.79
NanoBRET Fold Response ([1]; ADRA2B, 1μM tracer): 7.79
NanoBRET Fold Response ([2]; DRD4, 0.1μM tracer): 3.46
NanoBRET Fold Response ([2]; DRD4, 1μM tracer): 3.88
NanoBRET Fold Response ([3]; HTR7, 0.1μM tracer): 1.22
NanoBRET Fold Response ([3]; HTR7, 1μM tracer): 1.08

O=C(CCOCCOCCOCCOCCNC(=O)CCc1ccc2n1[B-](F)(F)[N+]1=C(c3ccc[nH]3)C=CC1=C2)NCCCN1CCN(C2=Nc3ccccc3Oc3ccc(Cl)cc32)CC1 [Loxapine-a-2-NB590]
NanoBRET Fold Response ([1]; ADRA2B, tracer 0.1μM): 3.38
NanoBRET Fold Response ([1]; ADRA2B, tracer 1μM): 5.35
NanoBRET Fold Response ([2]; DRD4, tracer 0.1μM): 1.57
NanoBRET Fold Response ([2]; DRD4, tracer 1μM): 2.56
NanoBRET Fold Response ([3]; HTR7, tracer 0.1μM): 1.07
NanoBRET Fold Response ([3]; HTR7, tracer 1μM): 1.30

O=C(CCc1ccc2n1[B-](F)(F)[N+]1=C(c3ccc[nH]3)C=CC1=C2)NCc1ccc(C(=O)NCCOCCC(=O)N[C@@H]2CC[C@@]3(O)[C@H]4Cc5ccc(O)c6c5[C@@]3(CCN4CC3CC3)[C@H]2O6)cc1 [Naltrexone-3-NB590]
NanoBRET Fold Response ([2]; DRD4, tracer 0.1μM): 0.82
NanoBRET Fold Response ([2]; DRD4, tracer 1μM): 1.11
NanoBRET Fold Response ([3]; HTR7, tracer 0.1μM): 0.97
NanoBRET Fold Response ([3]; HTR7, tracer 1μM): 0.97

Cc1cc2c(s1)Nc1ccccc1N=C2N1CCN(CCCNC(=O)CCOCCOCCOCCOCCNC(=O)CCc2ccc3n2[B-](F)(F)[N+]2=C(c4ccc[nH]4)C=CC2=C3)CC1 [Olanzapine-a-2-NB590]
NanoBRET Fold Response ([2]; DRD4, tracer 0.1μM): 1.68
NanoBRET Fold Response ([2]; DRD4, tracer 1μM): 2.27
NanoBRET Fold Response ([3]; HTR7, tracer 0.1μM): 0.99
NanoBRET Fold Response ([3]; HTR7, tracer 1μM): 1.16

O=C(CCc1ccc2n1[B-](F)(F)[N+]1=C(c3ccc[nH]3)C=CC1=C2)NCc1ccc(C(=O)NCCOCCOCCNCC(O)COc2cccc3ccccc23)cc1 (centres unmarked) [Propranolol-3-NB590]
NanoBRET Fold Response ([2]; DRD4, 0.1μM): 0.84
NanoBRET Fold Response ([2]; DRD4, 1μM): 0.99
NanoBRET Fold Response ([3]; HTR7, 0.1μM): 1.03
NanoBRET Fold Response ([3]; HTR7, 1μM): 1.02

O=C(CCc1ccc2n1[B-](F)(F)[N+]1=C(c3ccc[nH]3)C=CC1=C2)NCCOCCOCCNC(=O)OCCOCCN1CCN(C2=Nc3ccccc3Sc3ccccc32)CC1 [Quetiapine-a-2-NB590]
NanoBRET Fold Response ([2]; DRD4, tracer 0.1μM): 1.05
NanoBRET Fold Response ([2]; DRD4, tracer 1μM): 1.49
NanoBRET Fold Response ([3]; HTR7, tracer 0.1μM): 1.01
NanoBRET Fold Response ([3]; HTR7, tracer 1μM): 1.15

Cc1nc2n(c(=O)c1CCN1CCC(c3noc4cc(F)ccc34)CC1)CCCC2OC(=O)NCCOCCOCCOCCOCCNC(=O)CCc1ccc2n1[B-](F)(F)[N+]1=C(c3ccc[nH]3)C=CC1=C2 (centres unmarked) [Risperidone-2-NB590]
NanoBRET Fold Response ([2]; DRD4, tracer 0.1μM): 1.55
NanoBRET Fold Response ([2]; DRD4, tracer 1μM): 3.40
NanoBRET Fold Response ([3]; HTR7, tracer 0.1μM): 1.06
NanoBRET Fold Response ([3]; HTR7, tracer 1μM): 1.19
